{"source": "ChEMBL document CHEMBL1148590", "about": "“Design and synthesis of 3,4-dihydro-1H-[1]-benzothieno[2,3-c]pyran and 3,4-dihydro-1H-pyrano[3,4-b]benzofuran derivatives as non-nucleoside inhibitors of HCV NS5B RNA dependent RNA polymerase” (Bioorg Med Chem Lett, 2006)", "key": {"[1]": {"target": "RNA-directed RNA polymerase (Hepacivirus hominis, UniProt O39930)", "sequence (O39930 whole entry)": "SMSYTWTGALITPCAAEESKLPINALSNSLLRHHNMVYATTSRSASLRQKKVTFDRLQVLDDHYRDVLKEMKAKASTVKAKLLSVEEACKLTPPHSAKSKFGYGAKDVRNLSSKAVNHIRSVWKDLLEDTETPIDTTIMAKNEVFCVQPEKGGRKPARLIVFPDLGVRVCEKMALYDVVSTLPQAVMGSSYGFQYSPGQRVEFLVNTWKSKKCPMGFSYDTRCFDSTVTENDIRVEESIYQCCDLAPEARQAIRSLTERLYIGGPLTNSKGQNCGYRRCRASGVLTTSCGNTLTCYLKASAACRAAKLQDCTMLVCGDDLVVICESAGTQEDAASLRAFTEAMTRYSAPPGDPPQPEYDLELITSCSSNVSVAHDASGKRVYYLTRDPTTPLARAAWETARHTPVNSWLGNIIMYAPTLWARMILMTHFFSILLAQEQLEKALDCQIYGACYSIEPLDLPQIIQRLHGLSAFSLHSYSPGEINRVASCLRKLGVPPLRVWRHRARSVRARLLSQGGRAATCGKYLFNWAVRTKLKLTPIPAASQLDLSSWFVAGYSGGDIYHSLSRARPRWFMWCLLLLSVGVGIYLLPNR", "test": "Displacement of [alpha-32P]GTP from recombinant HCV NS5B RNA dependent RNA polymerase"}, "Vero": {"test_system": "Vero", "test": "Cytotoxicity against vero cells by MTS metabolic assay", "type": "functional, cell-based", "settings": "Chlorocebus sabaeus"}, "Huh-7": {"test_system": "Huh-7", "test": "Cytotoxicity against Huh7 cells by MTS metabolic assay", "type": "functional, cell-based", "settings": "Homo sapiens"}, "[2]": {"target": "T1, DNA polymerase subunit gamma-1 (Homo sapiens) (UniProt P54098)", "T1 sequence (whole entry)": "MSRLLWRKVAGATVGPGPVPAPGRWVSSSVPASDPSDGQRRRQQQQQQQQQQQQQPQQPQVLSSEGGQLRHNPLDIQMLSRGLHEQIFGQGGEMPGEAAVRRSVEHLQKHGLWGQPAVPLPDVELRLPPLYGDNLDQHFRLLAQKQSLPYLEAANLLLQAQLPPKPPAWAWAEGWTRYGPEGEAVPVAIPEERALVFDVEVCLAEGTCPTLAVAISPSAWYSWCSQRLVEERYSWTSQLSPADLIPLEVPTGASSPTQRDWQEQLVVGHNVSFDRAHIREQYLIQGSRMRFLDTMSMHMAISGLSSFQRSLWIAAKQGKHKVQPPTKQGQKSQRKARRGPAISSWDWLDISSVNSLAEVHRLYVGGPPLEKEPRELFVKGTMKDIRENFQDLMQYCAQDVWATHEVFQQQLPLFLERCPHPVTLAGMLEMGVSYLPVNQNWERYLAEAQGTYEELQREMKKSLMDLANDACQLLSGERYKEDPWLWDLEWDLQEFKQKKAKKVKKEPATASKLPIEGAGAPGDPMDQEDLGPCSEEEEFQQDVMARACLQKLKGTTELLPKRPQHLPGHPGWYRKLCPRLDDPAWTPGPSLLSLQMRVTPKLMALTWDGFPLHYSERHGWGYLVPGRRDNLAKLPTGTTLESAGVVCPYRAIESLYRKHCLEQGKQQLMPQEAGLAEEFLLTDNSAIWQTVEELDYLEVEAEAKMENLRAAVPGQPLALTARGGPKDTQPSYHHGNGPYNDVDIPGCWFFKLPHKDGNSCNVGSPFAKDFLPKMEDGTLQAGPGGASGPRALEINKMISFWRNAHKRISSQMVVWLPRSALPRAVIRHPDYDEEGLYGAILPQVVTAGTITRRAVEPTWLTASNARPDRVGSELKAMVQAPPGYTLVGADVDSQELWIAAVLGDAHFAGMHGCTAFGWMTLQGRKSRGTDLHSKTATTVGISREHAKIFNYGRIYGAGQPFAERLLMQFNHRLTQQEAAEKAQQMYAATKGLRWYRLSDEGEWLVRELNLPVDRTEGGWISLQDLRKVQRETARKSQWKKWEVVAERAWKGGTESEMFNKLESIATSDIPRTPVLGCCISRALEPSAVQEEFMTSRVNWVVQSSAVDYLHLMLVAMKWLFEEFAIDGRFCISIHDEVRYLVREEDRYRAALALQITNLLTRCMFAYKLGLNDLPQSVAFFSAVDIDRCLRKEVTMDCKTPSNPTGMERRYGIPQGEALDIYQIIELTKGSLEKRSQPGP", "test": "Inhibitory activity against human mitochondrial DNA polymerase gamma upto 50 uM"}, "[3]": {"target": "Human immunodeficiency virus type 1 reverse transcriptase (Human immunodeficiency virus 1, UniProt Q72547)", "test": "Inhibition of HIV reverse transcriptase"}, "NS3": {"target": "NS3 (Hepatitis C virus, UniProt A3EZJ3)", "sequence (A3EZJ3 whole entry)": "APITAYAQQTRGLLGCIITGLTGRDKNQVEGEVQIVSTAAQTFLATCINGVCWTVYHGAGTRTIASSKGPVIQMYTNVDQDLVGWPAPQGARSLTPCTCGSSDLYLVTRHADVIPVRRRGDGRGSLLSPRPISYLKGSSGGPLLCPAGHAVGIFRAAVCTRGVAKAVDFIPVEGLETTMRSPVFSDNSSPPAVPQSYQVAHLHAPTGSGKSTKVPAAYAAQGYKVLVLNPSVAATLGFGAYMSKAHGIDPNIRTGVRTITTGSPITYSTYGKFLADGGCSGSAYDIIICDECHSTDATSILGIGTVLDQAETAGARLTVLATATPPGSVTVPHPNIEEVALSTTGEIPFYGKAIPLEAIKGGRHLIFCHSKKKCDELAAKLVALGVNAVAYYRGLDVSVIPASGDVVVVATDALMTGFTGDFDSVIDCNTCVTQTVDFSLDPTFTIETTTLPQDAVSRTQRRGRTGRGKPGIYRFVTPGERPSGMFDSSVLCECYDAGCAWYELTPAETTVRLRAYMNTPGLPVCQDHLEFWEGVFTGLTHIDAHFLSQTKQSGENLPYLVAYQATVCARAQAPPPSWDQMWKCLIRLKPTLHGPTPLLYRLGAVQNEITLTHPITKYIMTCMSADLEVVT", "test": "Inhibition of HCV NS3 helicase", "design": "species or system Hepacivirus hominis"}}, "note": "Calls of active or inactive are those of the source. The rule behind the calls is not given here.", "data": [{"molecule": "CCCC1(CC(=O)O)OCCc2c1sc1ccccc21", "note": "(stereo not drawn)", "values": [{"measurement": "IC50", "setting": "[1]", "value": "> 20", "unit": "µM"}]}, {"molecule": "CCC[C@]1(CC(=O)O)OCCc2c1sc1c(C)ccc(C#N)c21", "values": [{"measurement": "IC50", "setting": "[1]", "value": 0.17, "unit": "µM"}]}, {"molecule": "CCC[C@@]1(CC(=O)O)OCCc2c1sc1c(C)cc(F)c(C#N)c21", "values": [{"measurement": "IC50", "setting": "[1]", "value": 5.36, "unit": "µM"}]}, {"molecule": "CCCC1(CC(=O)O)OCCc2c1sc1c(C)cc(F)cc21", "note": "(stereo not drawn)", "values": [{"measurement": "IC50", "setting": "[1]", "value": "> 20", "unit": "µM"}]}, {"molecule": "CCCC1(CC(=O)O)OCCc2c1sc1c(Cl)ccc(Cl)c21", "note": "(stereo not drawn)", "values": [{"measurement": "IC50", "setting": "[1]", "value": 0.14, "unit": "µM"}]}, {"molecule": "CCCC1(CC(=O)O)OCCc2c1sc1c(C)ccc(C#N)c21", "note": "(stereo not drawn)", "values": [{"measurement": "IC50", "setting": "[1]", "value": 0.32, "unit": "µM"}]}, {"molecule": "CCC[C@]1(CC(=O)O)OCCc2c1sc1c(C)cc(F)c(C#N)c21", "values": [{"measurement": "IC50", "setting": "Vero", "value": "> 75", "unit": "µM"}, {"measurement": "IC50", "setting": "[1]", "value": 0.05, "unit": "µM"}, {"measurement": "IC50", "setting": "Huh-7", "value": "> 75", "unit": "µM"}, {"measurement": "Activity", "setting": "[2]", "value": "inactive"}, {"measurement": "IC50", "setting": "[3]", "value": "> 100", "unit": "µM"}, {"measurement": "IC50", "setting": "NS3", "value": "> 75", "unit": "µM"}]}, {"molecule": "CCCC1(CC(=O)O)OCCc2c1sc1c(C)cc(F)c(C#N)c21", "note": "(stereo not drawn)", "values": [{"measurement": "IC50", "setting": "[1]", "value": 0.13, "unit": "µM"}]}, {"molecule": "CCC[C@@]1(CC(=O)O)OCCc2c1sc1c(C)ccc(C#N)c21", "values": [{"measurement": "IC50", "setting": "[1]", "value": 2.85, "unit": "µM"}]}, {"molecule": "CCCCC1(CC(=O)O)OCCc2c1sc1c(Cl)ccc(Cl)c21", "note": "(stereo not drawn)", "values": [{"measurement": "IC50", "setting": "[1]", "value": 0.75, "unit": "µM"}]}, {"molecule": "CCCC1(CC(=O)O)OCCc2c1sc1c(C)ccc(Br)c21", "note": "(stereo not drawn)", "values": [{"measurement": "IC50", "setting": "[1]", "value": 0.19, "unit": "µM"}]}, {"molecule": "CCCCC1(CC(=O)O)OCCc2c1oc1c(Cl)ccc(Cl)c21", "note": "(stereo not drawn)", "values": [{"measurement": "IC50", "setting": "[1]", "value": 4.46, "unit": "µM"}]}, {"molecule": "CCC1(CC(=O)O)OCCc2c1oc1c(Cl)ccc(Cl)c21", "note": "(stereo not drawn)", "values": [{"measurement": "IC50", "setting": "[1]", "value": 16.3, "unit": "µM"}]}, {"molecule": "CCCC1(CC(=O)O)OCCc2c1oc1ccccc21", "note": "(stereo not drawn)", "values": [{"measurement": "IC50", "setting": "[1]", "value": "> 20", "unit": "µM"}]}, {"molecule": "CC1(CC(=O)O)OCCc2c1sc1c(Cl)ccc(Cl)c21", "note": "(stereo not drawn)", "values": [{"measurement": "IC50", "setting": "[1]", "value": 17.6, "unit": "µM"}]}, {"molecule": "CCC1(CC(=O)O)OCCc2c1sc1c(Cl)ccc(Cl)c21", "note": "(stereo not drawn)", "values": [{"measurement": "IC50", "setting": "[1]", "value": 1.9, "unit": "µM"}]}, {"molecule": "CC1(CC(=O)O)OCCc2c1oc1c(Cl)ccc(Cl)c21", "note": "(stereo not drawn)", "values": [{"measurement": "IC50", "setting": "[1]", "value": "> 20", "unit": "µM"}]}, {"molecule": "CCCC1(CC(=O)O)OCCc2c1oc1c(Cl)ccc(Cl)c21", "note": "(stereo not drawn)", "values": [{"measurement": "IC50", "setting": "[1]", "value": 1.49, "unit": "µM"}]}]}
